Consider seven molecules from patent US20170014352A1, “WATER-DISPERSIBLE AMORPHOUS PARTICLES AND METHOD FOR PREPARING SAME” (The University of Tokyo, priority 2014, published 2017).

Where a name gives a salt, the structure may show the parent alone. Read-outs that look alike come from different tables or passages of the source.

A short description of data set [1]: particle size (Z-average, hydrodynamic diameter) and PDI by dynamic light scattering (DLS). The format is physicochemical. The text has this:
The “particle size” herein means an average particle size, and is defined as a particle size (Z-average) measured by use of a dynamic light scattering (Dynamic Light Scattering: DLS) method. The particle size thus measured is also referred to as “hydrodynamic diameter”.
The “polydispersity index (Polydispersity index: PDI)” herein is an index for evaluating the width of a particle size distribution, and is in the range from 0 to 1. A value of 0 represents an ideal suspension without any size distribution. A distribution having a PDI value of 0.1 or less is referred to as “monodispersity”, and on the other hand, a dispersion having a value between 0.1 and 0.3 is considered to have a narrow size distribution. A dispersion having a PDI of more than 0.5 is considered to be polydisperse. The polydispersity index is calculated from the value obtained by use of a dynamic light scattering (Dynamic Light Scattering: DLS) method.
Measurement by a DLS method was performed by use of a laser light scattering apparatus (Zetasizer Nano ZS manufactured by Malvern instruments Ltd.). A scanning electron microscope (SEM) image was obtained by use of Magellan 4001 manufactured by FEI Company. Powder X-ray diffraction was performed by use of SmartLab manufactured by Rigaku Corporation. FDU-1200 manufactured by EYELA was used for a freeze-dryer.

The conditions of data set [2]: cited from earlier work; for logP: measured value described in the literature; for log P: starting organic compound, Examples 9 and 10.
For data set [3] the following is noted: at 25° C.; cited from earlier work.
The mark [4] stands for this setting: Example 6: 100 μM THF solution of compound injected into water, THF distilled off, water dispersion.
Setting [5] is: Example 7: water injected into THF solution of compound (concentration 100 W), water dispersion.

What is called logP is the decadic logarithm of the partition coefficient of the neutral form, usually between octanol and water. As for `CC(C)CCC[C@@H](C)[C@H]1CC[C@H]2[C@@H]3CC=C4C[C@@H](O)CC[C@]4(C)[C@H]3CC[C@]12C` [Cholesterol, cholesterol], the PDI in data set [1] (setting [4]) is on record as 0.27; in data set [1] (setting [5]) it was 0.02. Besides, the “Particle size (nm)” value in data set [1] (setting [4]) turned out to be 228 nm; in data set [1] (setting [5]), 165 nm. Further, the logP in data set [2] (Table 1) and in data set [2] (Table 2) was 9.61 throughout.
One may read the log P as the decadic logarithm of the partition coefficient of the neutral form, usually between octanol and water. Regarding `COc1ccc(CC(C)NCC(O)c2ccc(O)c(NC=O)c2)cc1` (stereo not shown) [Formoterol fumarate hydrate], the solubility in water in data set [3] was 170 µg/mL. For the same molecule, the “log P” value in data set [2] was 2.0.
As to `Cc1c(OCC(F)(F)F)ccnc1C[S+]([O-])c1nc2ccccc2[nH]1` (stereo not shown) [Lansoprazole], the solubility in water entry in data set [3] is “less than 0.1 mg/mL”. In addition, the “log P” value in data set [2] was 2.58.
As to `c1ccc2cc3cc4cc5ccccc5cc4cc3cc2c1` [Pentacene, pentacene], in data set [1] (setting [5]), the PDI is 0.02 and the “Particle size (nm)” value is reported as 116 nm.
On the same counts, the results for `c1cc2ccc3cccc4ccc(c1)c2c34` [Pyrene, pyrene] are 0.13 and 120 nm.
Turning to `CCCc1nc2c(C)cc(-c3nc4ccccc4n3C)cc2n1Cc1ccc(-c2ccccc2C(=O)O)cc1` [Telmisartan, telmisartan, reference compound], in data set [1] (setting [5]), the PDI is 0.34 and the “Particle size (nm)” value was 10 nm. In data set [2] (Table 2), the logP is 6.48.
In the case of pyrenecarboxylic acid, in data set [1], the PDI is listed as 0.14 and the “Particle size (nm)” value worked out at 76 nm.
